In PMC11510177, “New Phytol Derivatives with Increased Cosmeceutical Potential” (Molecules, 2024):
Like-named read-outs stand apart in the source and are kept apart here. Values belong to the compound of their own block, whether it stands above or below them.

How the values were obtained:
[1] = DPPH radical scavenging assay; settings: 100 µM
Description: Antioxidant activity was assayed by the 1,1-diphenyl-2-picryl-hydrazyl (DPPH) radical scavenging assay. Serial dilutions of studied extracts or reference compound (Trolox) were carried out in 96-well microplates, with concentrations ranging between 0.100 μM and 100 μM in methanol. DPPH dissolved in methanol was added to the microwells, yielding a final concentration of 45 µg/mL, and the absorbance at 515 nm was measured after 30 min in the dark. In each assay, a control was prepared in which the same amount of solvent substituted the sample or standard. Percentage of antioxidant activity (% AA) was calculated as %AA = [(Abscontrol − Abssample)/Abscontrol] × 100 (1) where Abscontrol is the absorbance of the control and Abssample is the absorbance of the alga extract or standard. All assays were carried out in triplicate and the results expressed as IC50, i.e., as the concentration yielding 50% scavenging of DPPH, calculated by interpolation from the % AA vs. concentration curve.

elastase = assay: Elastase inhibition assay; assay type: biochemical; settings: 100 µM
Description: The extracts were assayed by the method described by Ndlovu et al. with some modifications. In brief, 25 μL of elastase enzyme solution (0.3 U/mL), 50 μL of ten serial concentrations of the extracts or fractions (0.100–100 μM dissolved in 100 mM HEPES buffer, pH 7.5 containing no more than 2.5 % DMSO), and 125 μL HEPES buffer were mixed in a 96-well plate and incubated at room temperature for 20 min. Then, 50 μL of N-methoxysuccinyl-Ala-Ala-Pro-Val-p-nitroanilide (1 mM) was added. The enzyme activity was measured at 405 nm in the moment of substrate addition and after 40 min of incubation at 25 °C. N-Methoxysuccinyl-Ala-Ala-Pro-chloromethyl ketone at 0.100–100 μM was used as a positive control. The experiments were carried out in triplicate. For each concentration, enzyme activity was calculated as a percentage of the velocities compared to that of the assay, using buffer without any inhibitor. The IC50 value, which was the sample concentration that inhibited 50% of the enzyme activity, was determined interpolation from the % elastase inhibition vs. concentration curve.

hyaluronidase = assay: Hyaluronidase inhibition assay; assay type: biochemical; settings: 100 µM; for increase in hyaluronidase inhibition over phytol: relative to phytol
Description: The assay was conducted following the Sigma protocol with minor adjustments. In a microplate, 25 µL of 5 U/mL of hyaluronidase prepared in 20 mM sodium phosphate buffer (pH 7.0) with 77 mM sodium chloride and 0.01% BSA, was pre-incubated with 50 µL of the sample in concentrations ranging from between 0.100 μM and 100 μM for 10 min at 37 °C. Subsequently, the assay was initiated by adding 25 µL hyaluronic acid (0.015 % in 300 mM sodium phosphate, pH 5.35) to the incubation mixture and incubated for an additional 30 min at 37 °C. Undigested hyaluronic acid was precipitated with 200 µL acid albumin solution composed of 0.1 % bovine serum albumin in 24 mM sodium acetate and 79 mM acetic acid (pH 3.75). After standing at room temperature for 10 min, the absorbance of the reaction mixture was measured at 600 nm. The absorbance in the absence of enzymes (blank) served as the reference value for maximum absorbance. Sodium aurothiomalate was used as a control inhibitor. Enzyme activity was verified by a control experiment conducted simultaneously, in which the enzyme was pre-incubated with buffer instead, followed by the assay procedures described above. The inhibitory activity of the test compound was determined as follows:%Inhibition = [1 − (Absblank − Abssample)/(Absblank − Abscontrol)] × 100(4) where Absblank is the absorbance of the reaction without enzyme, Abssample is the absorbance of the extract or standard compound sodium aurothiomalate, and Abscontrol is the absorbance of the enzyme without inhibitor. The IC50 value, which was the sample concentration that inhibited 50% of the enzyme activity, was determined by interpolation from the % hyaluronidase inhibition vs. concentration curve.

tyrosinase = biological target: T1, tyrosinase (Agaricus bisporus, UniProt C7FF04); assay: Tyrosinase inhibition assay; assay type: biochemical
T1 construct: purchased Sigma-Aldrich
T1 sequence (C7FF04 1-392 limits assumed): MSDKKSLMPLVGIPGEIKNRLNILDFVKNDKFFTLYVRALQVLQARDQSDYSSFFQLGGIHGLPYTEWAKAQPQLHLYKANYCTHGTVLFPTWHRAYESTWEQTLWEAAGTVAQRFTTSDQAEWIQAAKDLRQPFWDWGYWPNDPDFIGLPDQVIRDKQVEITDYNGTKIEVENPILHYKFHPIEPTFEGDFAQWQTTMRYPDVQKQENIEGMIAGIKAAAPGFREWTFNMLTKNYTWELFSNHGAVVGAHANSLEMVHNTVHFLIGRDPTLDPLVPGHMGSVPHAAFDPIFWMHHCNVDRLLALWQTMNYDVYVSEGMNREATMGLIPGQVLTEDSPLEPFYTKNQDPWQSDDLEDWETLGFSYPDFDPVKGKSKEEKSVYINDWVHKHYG
Description: The extracts were assayed by adapting the tyrosinase inhibition method described by Shimizu et al. and modified by Manosroi et al.. […] The experiments were carried out in triplicate. For each concentration, enzyme activity was calculated as a percentage of the velocities compared to that of the assay using buffer without any inhibitor.

[2] = ABTS radical scavenging assay; settings: 100 µM
Description: The method of Re et al. was adopted to perform the ABTS radical scavenging assay. The stock solutions included a 7 mM ABTS solution (2,2′-azinobis-(3 ethylbenzothiazoline 6 sulfonic acid)) and a 2.4 mM potassium persulfate solution. The working solution was prepared by mixing the two stock solutions in equal quantities and allowing for them to react for 12–16 h at room temperature in the dark. The solution was then diluted by mixing 1 mL ABTS solution with the amount of methanol necessary to obtain an absorbance of 0.7 at 734 nm. Serial dilutions of studied extracts or reference compound (Trolox) were carried out in 96-well microplates, with concentrations ranging between 0.100 μM and 100 μM in methanol. ABTS solution was then added to the microwells, and after 8 min of incubation, the absorbance was recorded at […]. In each assay, a negative control was prepared in which the same amount of solvent substituted the sample. The percentage of antioxidant activity (% AA) was calculated as %AA = [(Abscontrol − Abssample)/Abscontrol] × 100 (2) where Abscontrol is the absorbance of ABTS radical + methanol; Abssample is the absorbance of ABTS radical + sample/standard.
All assays were carried out in triplicate and results expressed as IC50, i.e., as the concentration yielding 50% scavenging of ABTS, calculated by interpolation from the % AA vs. concentration curve.

collagenase = assay: Collagenase inhibition assay; assay type: biochemical; settings: 100 µM; for fold increase in collagenase inhibition over phytol: compared to phytol
Description: An adaptation of the method of Mandl et al. was used to determine anti-collagenase activity. The following was added to 2 mL test tubes: 25 μL of collagenase solution (0.8 U/mL); 25 μL TES buffer (50 mM) with 0.36 mM calcium chloride, pH 7.4; and 50 μL of test sample or the reference compound EDTA (with concentrations ranging between 0.100 and 100 μM). The tubes were incubated in a water bath at 37 °C for 20 min. Thereafter, 50 μL FALGPA (1 mM) solution was added to the tubes and further incubated for 60 min at 37 °C. To all tubes, 200 μL of a solution containing equal volumes of a 1.6 mg/mL tin chloride (II) solution in 200 mM citrate buffer, pH 5, and 50 mg/mL ninhydrin solution in DMSO were added. All tubes were placed in a water bath (100 °C) for 5 min and left to cool to room temperature before adding 200 μL of 50% isopropanol to each tube. Contents in the tubes were then transferred to respective wells in 96-well plates. Absorbance was detected at 550 nm. EDTA was used as a control inhibitor. Percentage of collagenase inhibition was calculated as % Collagenase inhibition = [(Abscontrol − Abssample)]/Abscontrol] × 100 (5) where Abscontrol is the absorbance of buffer + collagenase; Abseample is the absorbance of buffer + collagenase + sample/standard.
All assays were carried out in triplicate and results expressed as IC50, i.e., as the concentration yielding 50% of collagenase inhibition, calculated by interpolation from the % collagenase inhibition vs. concentration curve.

[3] = read-out: IC50 against tyrosinase

elastase inhibition (elastase): 43.28%
hyaluronidase inhibition (hyaluronidase): 37.32%
increase in hyaluronidase inhibition over phytol (hyaluronidase): 15–20%
IC50 (tyrosinase; [3]): 34.73 ± 0.1 µM
SMILES: C/C(=C\COC(=O)c1ccccc1)CCC[C@@H](C)CCC[C@@H](C)CCCC(C)C (stereo in doubt) [Compound 1a, Phytyl benzoate]
Percentage of DPPH scavenging [1]: 4.75%

IC50 (tyrosinase; [3]): 95.68 ± 0.94 µM
SMILES: C/C(=C\COC(=O)/C=C/c1ccccc1)CCC[C@@H](C)CCC[C@@H](C)CCCC(C)C (stereo in doubt) [Compound 1f, Phytyl cinnamoate]
Percentage of DPPH scavenging [1]: about 50%
Percentage of ABTS scavenging [2]: about 50%
increase in ABTS antioxidant activity compared to phytol (1) [2]: 30%

SMILES: CC(=CCO)CCCC(C)CCCC(C)CCCC(C)C (stereo not shown) [Compound 1, 3,7,11,15-tetramethylhexadec-2-en-1-ol, reference compound]
elastase inhibition (elastase): 6.4%
collagenase inhibition (collagenase): 31.89%
IC50 (tyrosinase; IC50 against tyrosinase): 77.5 ± 0.8 µM

elastase inhibition (elastase): low
hyaluronidase inhibition (hyaluronidase): 34.74%
IC50 (tyrosinase; [3]): 59.62 ± 0.51 µM
SMILES: COc1ccccc1C(=O)OC/C=C(\C)CCC[C@H](C)CCC[C@H](C)CCCC(C)C [Compound 1b, Phytyl 2-methoxybenzoate]

SMILES: COc1cccc(C(=O)OC/C=C(\C)CCC[C@H](C)CCC[C@H](C)CCCC(C)C)c1 [Compound 1c, Phytyl 3-methoxybenzoate]
elastase inhibition (elastase): low
fold increase in collagenase inhibition over phytol (collagenase): 1.42 fold
hyaluronidase inhibition (hyaluronidase): 40.1%
increase in hyaluronidase inhibition over phytol (hyaluronidase): 28%
IC50 (tyrosinase; [3]): 79 ± 0.87 µM

SMILES: COc1ccc(C(=O)OC/C=C(\C)CCC[C@H](C)CCC[C@H](C)CCCC(C)C)cc1 [Compound 1d, Phytyl 4-methoxybenzoate]
Percentage of ABTS scavenging [2]: about 50%
increase in ABTS antioxidant activity compared to phytol (1) [2]: 30%
collagenase inhibition (collagenase): 49.67%
fold increase in collagenase inhibition over phytol (collagenase): 1.56 fold
hyaluronidase inhibition (hyaluronidase): 22.54%
IC50 (tyrosinase; [3]): 27.9 µM

SMILES: C/C(=C\COC(=O)c1ccc(Cl)cc1)CCC[C@H](C)CCC[C@H](C)CCCC(C)C [Compound 1e, Phytyl 4-chlorobenzoate]
Percentage of DPPH scavenging [1]: 11.12%
increase in ABTS antioxidant activity compared to phytol (1) [2]: 30%
elastase inhibition (elastase): 27.78%
fold increase in collagenase inhibition over phytol (collagenase): 1.38 fold
hyaluronidase inhibition (hyaluronidase): 14.66%
IC50 (tyrosinase; [3]): > 100 µM

SMILES: C/C(=C\COC(=O)C=Cc1ccc([N+](=O)[O-])cc1)CCC[C@H](C)CCC[C@H](C)CCCC(C)C [Compound 1g, Phytyl 4-nitrocinnamoate]
Percentage of DPPH scavenging [1]: 37.46%
Percentage of ABTS scavenging [2]: 28.74%
collagenase inhibition (collagenase): 41.02%
fold increase in collagenase inhibition over phytol (collagenase): 1.28 fold
hyaluronidase inhibition (hyaluronidase): 23.06%
IC50 (tyrosinase; [3]): 64.1 ± 0.67 µM

SMILES: C/C(=C\COC(=O)c1ccco1)CCC[C@H](C)CCC[C@H](C)CCCC(C)C [Compound 1h, Phytyl 2-furoate]
elastase inhibition (elastase): 28.3%
collagenase inhibition (collagenase): 22.37%
hyaluronidase inhibition (hyaluronidase): 36.02%
increase in hyaluronidase inhibition over phytol (hyaluronidase): 15–20%
IC50 (tyrosinase; [3]): > 100 µM

SMILES: C/C(=C\COC(=O)c1cccs1)CCC[C@H](C)CCC[C@H](C)CCCC(C)C [Compound 1i, Phytyl 2-thiophenecarbonoate]
Percentage of ABTS scavenging [2]: 40.58%
elastase inhibition (elastase): 18.19%
collagenase inhibition (collagenase): 41.68%
fold increase in collagenase inhibition over phytol (collagenase): 1.28 fold
IC50 (tyrosinase; [3]): > 100 µM

SMILES: Cc1c(C)c2c(c(C)c1O)CCC(C)(C(=O)O)O2 (stereo not shown) [Trolox, 6-hydroxy-2,5,7,8-tetramethylchroman-2-carboxylic acid, reference compound]
Percentage of DPPH scavenging [1]: 97.54%
